Data on 1 compound can be found in patent US20170165286A1, “COMPOSITIONS AND METHODS FOR TREATING DIABETES AND LIVER DISEASES” (Cempra Pharmaceuticals, Inc., priority 2014, published 2017).

Series [1] has as its system STAM mice. As to the kind of experiment: STAM model: liver immunohistochemistry (F4/80, Gr-1, CK-18). It is filed as in vivo. The settings on record: for F4/80-positive area (%) a measure of macrophage density: STAM mice liver. On the procedure:
(§1) NASH-HCC (STAM™) Model. C57BL/6 (15-day-pregnant female) mice are obtained from Charles River Laboratories Japan (Kanagawa, Japan). Male pups are selected for the study. NASH is induced in male mice by a single subcutaneous injection of 200 μg streptozotocin (STZ, Sigma-Aldrich, USA) solution 2 days after birth, followed by feeding a HFD (57 kcal % fat, cat#: HFD32, CLEA Japan, Japan) beginning at 4 weeks of age. At 5 weeks of age, mice are divided into a control group and one or more treated group (generally 8 mice per group). Animals are sacrificed at 9 weeks of age, and biochemical, histological, and gene expression analyses are performed.
(§2) During weeks 5-9 (starting at day 35±2), test compound is administered (generally orally) at various doses diluted to 10 mL/kg and according to various dosing protocols to treatment groups (8 mice each) while a second group (8 mice) is administered vehicle only. Animals are sacrificed at 9 weeks.
For immunohistochemistry (a measure of inflammation), sections are cut from frozen liver tissues embedded in Tissue-Tek O.C.T. compound and fixed in acetone. Endogenous peroxidase activity is blocked using 0.03% H2O2 for 5 minutes, followed by incubation with Block Ace (Dainippon Sumitomo Pharma, Japan) for 10 minutes. The sections were incubated with a 200-fold dilution of anti-F4/80 antibody (BMA Biomedicals, Switzerland), a 50-fold dilution of anti-CK-18 antibody (LifeSpan BioSciences, USA) or anti-Gr-1 antibody (culture supernatant) over night at 4° C. F4/80 is a marker for macrophage and Kupffer cells in the liver; CK-18 antibody measures the cytoskeleton in damaged hepatocytes; and anti-Gr-1 antibody measures the neutrophil response. After incubation with secondary antibody (HRP-Goat anti-rat antibody, Invitrogen, USA), enzyme-substrate reactions are performed using 3, 3′-diaminobenzidine/H2O2 solution (Nichirei, Japan).
For quantitative analysis of fibrosis area, bright field images of Sirius red-stained sections are captured around the central vein using a digital camera (DFC280; Leica, Germany) at 200-fold magnification, and the positive areas in 5 fields/section are measured using ImageJ software (National Institute of Health, USA). For quantitative analysis of inflammation area, bright field images of F4/80-immunostained sections are captured around the central vein using a digital camera (DFC280; Leica, Germany) at 200-fold magnification, and the positive areas in 5 fields/section are measured using ImageJ software (National Institute of Health, USA).
(§3) Illustrative dose response test groups. Group 1-Normal. Eight normal mice are fed with a normal diet ad libitum without any treatment until 9 weeks of age. Group 2-Vehicle. Eight NASH mice are orally administered vehicle (0.5% w/v methylcellulose+0.2% Tween®80) in a volume of 10 mL/kg twice daily from 5 to 9 week of age. Group 3-solithromycin 5 mg/kg. Eight NASH mice are orally administered vehicle supplemented with solithromycin at a dose of 5 mg/kg in the morning and the vehicle in the evening (5 mg/kg/day) from 5 to 9 weeks of age. Group 4-solithromycin 10 mg/kg. Eight NASH mice are orally administered vehicle supplemented with solithromycin at a dose of 10 mg/kg twice daily (20 mg/kg/day) from 5 to 9 weeks of age. Group 5-solithromycin 25 mg/kg. Eight NASH mice are orally administered vehicle supplemented with solithromycin at a dose of 25 mg/kg twice daily (50 mg/kg/day) from 5 to 9 weeks of age. Group 6-solithromycin 50 mg/kg. Eight NASH mice are orally administered vehicle supplemented with solithromycin at a dose of 50 mg/kg once daily (50 mg/kg/day) from 5 to 9 weeks of age.

Series [2] has as its system STAM mice. Put plainly: STAM model: HE staining, NAFLD Activity score. It is filed as in vivo. Particulars: for NAFLD Activity Score: 5-9 wks. On the procedure: as §1, §2
Histopathological analyses. For HE staining, sections are cut from paraffin blocks of left lateral liver tissue prefixed in Bouin's solution and stained with Lillie-Mayer's Hematoxylin (Muto Pure Chemicals, Japan) and eosin solution (Wako Pure Chemical Industries). NAFLD Activity score (NAS) is calculated according to the criteria of Kleiner (Kleiner D E. et al., Hepatology, 2005; 41:1313). A NAS≧5 with steatosis and hepatocyte ballooning is generally considered diagnostic of NASH.
as §3

Entries after “also recorded” stand apart in the source; their conditions may differ.

Turning to `CC[C@H]1OC(=O)[C@@](C)(F)C(=O)[C@H](C)[C@@H](O[C@@H]2O[C@H](C)C[C@H](N(C)C)[C@H]2O)[C@](C)(OC)C[C@@H](C)C(=O)[C@H](C)[C@H]2N(CCCCn3cc(-c4cccc(N)c4)nn3)C(=O)O[C@]12C` [solithromycin], the “F4/80-positive area (%) a measure of macrophage density” value in the series with STAM mice [1] (5 mg/kg) was 10.83 ± 1.38%; in the series with STAM mice [1] (10 mg/kg) it was 9.33 ± 1.31%; with STAM mice [1] (25 mg/kg), 10.63 ± 2.11%. Further, the “Area of F4/80-positive macrophages compared to vehicle group” value with STAM mice [1] (STAM mice, Groups 3-6) is listed as “no significant differences”. The “Gr-1 positive cells (neutrophil infiltration) in liver compared to vehicle group” value in the series on STAM mice [1] (STAM mice, all doses) is given as “decreased; also recorded: reduced”. Besides, in the series on STAM mice [1] (STAM mice, any doses), the “CK-18 immunostaining compared to vehicle group” value is “no obvious changes”. Also, the “NAFLD Activity Score” value in the series on STAM mice [2] (5 mg/kg q.d. oral, 5 mg/kg) is on record as “no statistically significant difference”; with STAM mice [2] (5 mg/kg q.d. oral, listed as Solithromycin, 5 mg/kg), 4.8 ± 0.9; in the series on STAM mice [2] (10 mg/kg b.i.d. oral, 10 mg/kg), “significantly decreased”; in the series with STAM mice [2] (10 mg/kg b.i.d. oral, listed as Solithromycin, 10 mg/kg) it was 3.3 ± 0.9; with STAM mice [2] (25 mg/kg b.i.d. oral, 25 mg/kg), “significantly decreased”; with STAM mice [2] (25 mg/kg b.i.d. oral, listed as Solithromycin, 25 mg/kg) it was 2.9 ± 1.0. The “NAFLD Activity Score” value with STAM mice [2] (50 mg/kg q.d. oral, 50 mg/kg) is given as “significant reduction”; in the series on STAM mice [2] (50 mg/kg q.d. oral, listed as Solithromycin, 50 mg/kg), 3.0 ± 0.9. For the same compound, in the series with STAM mice [2] (Groups 4-6), the “Hepatocellular ballooning and inflammatory cell infiltration compared to vehicle group” value was “significant improvements”.
